Assay results from patent publication US20080114063A1, “Use of 2,5-Dihydroxybenzene Derivatives for the Treatment of Tissue Reactive Diseases” (Action Medicines, priority 2006, published 2008).
“Also recorded” adds a separate entry of the source.

Tests used:
[1] = molecular target: fibroblast growth factor-1 (FGF-1) (Homo sapiens, UniProt P05230); assay: Co-crystallization with FGF-1 (crystal diffraction); assay type: binding; conditions: electron density contoured at 1σ, site close to that of 2,5-dihydroxybenzenesulfonic acid
Experimental: Based on the crystal diffraction of the FGF-1:2-acetoxy-5-hydroxybenzene sulfonic acid, FGF-1:5-acetoxy-2-hydroxybenzene sulfonic acid and FGF-1:2,5-diacetoxybenzene sulfonic acid complexes, the structures of the complexes were calculated and represented. FIGS. 20, 21 and 22, which show the surface of the dyed protein according to its electrostatic potential (light grey: negative charge; dark grey: positive charge; white: lack of charge), show the manner in which 2-acetoxy-5-hydroxybenzene sulfonic acid, 5-acetoxy-2-hydroxybenzene sulfonic acid and 2,5-diacetoxybenzene sulfonic acid interact, respectively, with FGF-1.

[2] = tested on: fibroblast growth factor-1 (FGF-1) induced mitogenesis in Balb/c 3T3 fibroblasts; assay: Inhibition of FGF-1 induced mitogenesis in quiescent Balb/c 3T3 fibroblast cultures; assay type: cell-based; conditions: quiescent cultures of Balb/c 3T3 fibroblasts
Experimental: The evaluated compounds were used in the form of potassium salt, except in the first case in which calcium salt was used. The experiments were carried out as described in Fernández-Tornero C et al. J Biol Chem, 2003.

rat C6 glioma cells = assay: Proliferation of rat glioma C6 cells (crystal violet); assay type: cell-based; conditions: 500 μM, 48 h, crystal violet absorbance at 595 nm
Experimental: FIG. 19. […] 5A-2HBS and 2A-5HBS were administered or not (control) after seeding C6 cells in 24 well plates (10^4 per well) until they were fixed 48 hours later. Data are expressed as the mean ±SEM of the percentage of absorbance at 595 nm obtained in control cultures, which is proportional to the number of cells stained with crystal violet. Data were obtained from 3 cultures for each treatment and 6 control cultures.
The cell line used was the C6 cell line and the experiment was carried out as described in examples 2 and 3. Once adhered, the cells were treated or not (controls) with (5A-2HBS) (500 μM) or (2A-5HBS) (500 μM) and they were allowed to proliferate for 48 h. After this time the glioma cell proliferation was evaluated by means of staining the fixed cells with crystal violet. The number of cells is proportional to the amount of retained dye, which was determined spectrophotometrically by measuring the absorbance at 595 nm once the dye was extracted from the cells.

OVA-sensitized mice = assay: Experimentally induced (OVA) asthma in mice: methacholine bronchoconstriction and BAL cell count; assay type: in vivo, Balb/c mice; conditions: for methacholine induced bronchoconstriction (Penh): methacholine 5 and 20 mg/mL
Experimental: 6-9 week old Balb/c mice were used. The ovoalbumin (OVA)/aluminum complex was obtained after dissolving OVA (500 μg/mL) in PBS, and mixing it with an equal volume of 10% aluminum potassium sulfate at pH 6.5 for 1 hour. After centrifuging the pellet (750×g for 5 minutes) the OVA/aluminum pellet was resuspended in distilled water. On day 0, the mice were intraperitoneally injected with 100 μg of OVA/aluminum. Eight days later, the mice were anesthetized and exposed to 250 μg of OVA. Later, they were administered 125 μg of OVA on days 15, 18 and 21. Each […] received sublingual administration of OVA.
The following treatments were administered to the animals: (i.p.) vehicle from day 2, potassium 2,5-diacetoxybencene sulfonate (DABS; 100 mg/kg/day, i.p.) from day 2, DABS (100 mg/kg/day, i.p.) from day 8 and Combivent (20 μg/200 μg in aerosol) on days 20, 21 and 22, the latter as a reference treatment.
In order to evaluate the pulmonary function, the response to methacholine in conscious mice was determined, 24 hours after the last exposure to OVA. The mice were exposed to increasing methacholine concentrations (5 and 20 mg/mL) in the form of aerosol using an ultrasonic nebulizer during 2 minutes. The degree of bronchoconstriction was expressed as the enhanced […] (Penh) which correlates to the mouse air resistance, impedance and pressure within the pleura. The Penh was calculated using the formula Penh=[(Te/Rt−1)×(PEF/PIF)], where Te is expiratory time, Rt is relaxation time, PEF is peak expiratory flow and PIF is peak inspiratory flow×0.67 coefficient.
After measuring airway hyperreactivity, the mice were sacrificed and bronchoalveolar lavage (BAL) of the right lung was collected. The total number of cells in the BAL fluid was determined.

[3] = tested on: intestinal inflammatory disease (IID) induced by 3% dextran sulfate sodium; assay: Intestinal inflammatory disease induced by dextran sulfate sodium (DSS) in the mouse; assay type: in vivo, mice of strain C57BL/6J-664; conditions: for disease clinical score (0 to 6 scale): two DSS cycles
Description: The induction of the intestinal inflammatory disease described below is a representative model for the evaluation of therapeutic strategies to treat Crohn's disease and ulcerative colitis. 7-8 week old female mice of strain C57BL/6J-664 were used. The intestinal inflammatory disease (IID) was induced by feeding the mice with 3% dextran sulfate sodium (DSS; MW 40,000) dissolved in drinking water in 2 cycles. Each cycle consisted of 7 days with 3% DSS in the drinking water separated by 7 days with regular water. A daily clinical evaluation of the animals was performed in which the body weight, the consistency of the faeces and the presence of blood in the faeces were determined. Thus, the validated score of the clinical activity of the disease was evaluated with a 0 to 6 scale, considering the following parameters: consistency of the faeces, presence or absence of fecal blood and loss of weight.
At the end of the first cycle of exposure to DSS, the mice were divided into the following treatment groups: a first group was administered intraperitoneal (i.p) injections of vehicle (0.9% NaCl). Another group received intramuscular injections of Solu-Medrol, a standard IID treatment, at a dose of 10 mg/kg/day. A third group was administered i.p. injections of potassium 2,5-diacetroxybenzene sulfonate (DABS, 100 mg/kg/day). The last group was treated orally with 125 mg/kg day of DABS.

Leishmania major = assay: Experimental infection with Leishmania major in mouse paw pad (lesion size); assay type: in vivo, Leishmania major in BALB/c female mice
Description: This model is based in the massive inoculation of Leishmania promatigotes in the mouse paw pad. Under these conditions, the parasite induces a progressive inflammation correlated with the multiplication of parasites at the site of inoculation. BALB/c strain female mice that developed severe and uncontrolled injuries were used (Foote S J, Handman E. Brief Funct Genomic Proteomic, 2005). This model has been used in pharmacology to monitor the therapeutic capacity of new leishmanicide compounds and the preventive capacity of potential vaccines against leishmaniasis ((Nelson K G et al. Antimicrob Agents Chemother. 2006).
The animals were inoculated with 5×10^6 of L. major promastigotes (strain Hervás) in 50 μL of PBS into the plantar pad of the right back paw. As negative control of the infection, a group of mice inoculated with 50 μL of PBS was used. The sizes of the lesions were measured every 7 days until the animals were sacrificed (week 9) using a Vernier caliper. The thickness of the right back paw (infected) and the left back paw (uninfected) of all the animals was measured at the base of the fifth toe. The progression of the inflammation is represented as the difference in thickness between the infected and the non-infected paws. […]

Chain of fibroblast growth factor-1 (FGF-1) (P05230 whole entry, species assumed): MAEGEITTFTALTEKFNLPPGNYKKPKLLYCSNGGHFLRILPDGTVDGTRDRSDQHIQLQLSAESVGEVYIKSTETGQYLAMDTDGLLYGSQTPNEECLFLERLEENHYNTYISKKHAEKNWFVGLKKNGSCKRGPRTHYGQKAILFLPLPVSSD

`CC(=O)Oc1ccc(O)c(S(=O)(=O)O)c1` [5-acetoxy-2-hydroxybenzenesulfonic acid] was tested, and the “state of the compound when bound to FGF-1 (co-crystal electron density)” value (from here on “state of the compound when bound”) [1] was “conserves the acetoxyl group in position 5 when it binds to the protein”.
In the case of `CC(=O)Oc1ccc(O)c(S(=O)(=O)[O-])c1.[K+]` [5A-2HBS, potassium 5-acetoxy-2-hydroxybenzene sulfonate], the “inhibition of FGF-1 induced mitogenesis” value [2] is reported as “Inhibition of FGF-1 induced mitogenesis” and the “rat glioma cell proliferation” value (rat C6 glioma cells) is reported as “inhibition of rat glioma cell proliferation”.
In the case of `CC(=O)Oc1ccc(OC(C)=O)c(S(=O)(=O)[O-])c1.[K+]` [DABS, potassium 2,5-diacetoxybenzene sulfonate], the “methacholine induced bronchoconstriction (Penh)” value (OVA-sensitized mice; 100 mg/kg/day i.p. from day 2) is reported as “completely prevented”, the “methacholine induced bronchoconstriction (Penh)” value (OVA-sensitized mice; 100 mg/kg/day i.p. from day 8) is reported as “completely prevented” and the “presence of cells in bronchoalveolar lavage (BAL)” value (OVA-sensitized mice; 100 mg/kg/day i.p., right lung BAL, vs vehicle) is reported as “significantly reduced”. The “increase of the Penh after exposure to methacholine vs saline” value (OVA-sensitized mice; mouse, in vivo) was “do not show a significant increase of the Penh”, the “reduction of BAL cells compared with Combivent” value (OVA-sensitized mice; mouse, in vivo) was “even more than the treatment with Combivent” and the “disease clinical score (0 to 6 scale)” value ([3]; 100 mg/kg/day i.p.) was “reduced”. The “disease clinical score (0 to 6 scale)” value ([3]; 125 mg/kg/day orally) was “reduced”, the “loss of body weight produced by DSS” value ([3]; DABS 100 mg/kg/day i.p. or 125 mg/kg/day p.o., two 7-day DSS cycles, vs vehicle) was “reduced; also recorded: significant effect on the body weight” and the “efficacy compared with standard treatment Solu-Medrol (body weight and clinical score)” value ([3]; DABS i.p. or p.o. vs Solu-Medrol 10 mg/kg/day i.m.) was “not lower (in some points it is higher)”. The “inhibition of FGF-1 induced mitogenesis” value [2] was “Inhibition of FGF-1 induced mitogenesis”, the “size of the lesion (paw thickness difference)” value (Leishmania major; 200 mg/kg daily i.p. from day 0 to week 9, effect from the third week post-infection) was “statistically significant reduction in the size of the lesion” and the “size of the lesion (paw thickness difference)” value (Leishmania major; 200 mg/kg/day i.p. from the third week after inoculation, effect from the eighth week) was “significantly smaller”.
With `C[C@H]1C[C@@H]2[C@H]([C@@H](O)C[C@@]3(C)[C@H]2CC[C@]3(O)C(=O)COC(=O)CCC(=O)O)[C@@]2(C)C=CC(=O)C=C12` [Solu-Medrol, reference compound] the “effect on body weight” value ([3]; Solu-Medrol 10 mg/kg/day i.m., two 7-day DSS cycles, vs vehicle) was “significant effect on the body weight”.
For `CC(=O)Oc1ccc(OC(C)=O)c(S(=O)(=O)O)c1` [2,5-diacetoxybenzenesulfonic acid], the “state of the compound when bound” value [1] was “conserves the acetoxyl groups in positions 2 and 5 when it binds to the protein”.
For `CC(=O)Oc1ccc(O)cc1S(=O)(=O)O` [2-acetoxy-5-hydroxybenzenesulfonic acid], the “state of the compound when bound” value [1] was “conserves the acetoxyl group in position 2 when it binds to the protein”.
With “calcium 2-acetoxy-5-hydroxybenzenesulfonate [2A-5HBS]” the “inhibition of FGF-1 induced mitogenesis” value [2] was “Inhibition of FGF-1 induced mitogenesis”.
